According to US20250092065A1, “2-(INDAZOL-5-YL)-6-(PIPERIDIN-4-YL)-1,7-NAPHTHYRIDINE DERIVATIVES AND RELATED COMPOUNDS AS MODULATORS FOR SPLICING NUCLEIC ACIDS AND FOR THE TREATMENT OF PROLIFERATIVE DISEASES” (REMIX THERAPEUTICS INC., priority 2022, published 2025):
Like-named read-outs stand apart in the source and are kept apart here.

Columns and labels:
MYB mRNA = assay: RT-qPCR splicing assay, MYB mRNA canonical (CJ) and alternative (AJ) junction; assay type: cell-based, human; conditions: Homo sapiens; for AC50: MYB alternative junction mRNA, read-out: MYB AJ (increase in AJ mRNA, AC50)
In short: (§1)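 Canonical and alternative-exon junction isoforms were quantified by RT-qPCR in cell lysates, with ΔCt against a housekeeper (GAPDH/GUSB/PPIA), then ΔΔCt vs DMSO, converted to 2^(−ΔΔCt) and percent response. K562 or A673 cells were exposed for 24 h to 11 concentrations (3-fold, top final 10 uM).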

HTT mRNA = assay: RT-qPCR splicing assay, HTT mRNA canonical (CJ) and alternative (AJ) junction; assay type: cell-based, human; conditions: Homo sapiens; for AC50: HTT alternative junction mRNA, read-out: HTT AJ (increase in AJ mRNA, AC50)
In short: as §1

MYB = assay: HiBiT protein abundance assay, MYB (K562 HiBiT knock-in); assay type: cell-based, human; conditions: HiBiT knock-in K562 cells, 24 hours, top dose 10 μM
In short: (§2)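 K562 HiBiT knock-in, 24 h, 37 °C, top 10 μM final, 3-fold ×10, DMSO ≤0.25%. Lytic HiBiT luminescence; PC = parental K562, NC = DMSO; 4PL IC50.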

K562 cells = assay: Cell Titer Glo 2.0 cell viability (toxicity) assay, K562; conditions: 500 cells/well, 72 hours
HTT = assay: HiBiT protein abundance assay, HTT (K562 HiBiT knock-in); assay type: cell-based, human; conditions: HiBiT knock-in K562 cells, 24 hours, top dose 10 μM
In short: as §2

SMN2 mRNA = assay: RT-qPCR splicing assay, SMN2 mRNA; assay type: cell-based, human; conditions: Homo sapiens, canonical junction qPCR panel, Table 4; read-out: SMN2 IC50 (decrease in CJ mRNA levels)
In short: as §1

Target C = assay: HiBiT protein abundance assay, Target C (K562 HiBiT knock-in); assay type: cell-based, human; conditions: HiBiT knock-in K562 cells, 24 hours, top dose 10 μM
In short: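 K562 HiBiT knock-in cells (10000/well) were treated 24 h at 37° C with a 10-point 3-fold dilution series (top 10 μM final, ≤0.25% DMSO). HiBiT luminescence was read after lytic LgBiT detection. Percent response used unmodified K562 and DMSO-treated knock-in controls, and IC50 came from a four-parameter fit at 50% of untreated.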

[1] = MYB canonical junction mRNA, RT-qPCR, read-out: MYB CJ (decrease in CJ mRNA levels, IC50)
[2] = canonical junction qPCR panel, Table 4, read-out: MYB IC50 (decrease in CJ mRNA levels)
[3] = HTT canonical junction mRNA, RT-qPCR, read-out: HTT CJ (decrease in CJ mRNA levels, IC50)
[4] = canonical junction qPCR panel, Table 4, read-out: HTT IC50 (decrease in CJ mRNA levels)

Compound | IC50 (MYB mRNA; [1]) | IC50 (MYB mRNA; [2]) | IC50 (HTT mRNA; [3]) | IC50 (HTT mRNA; [4]) | IC50 (MYB) | IC50 (HTT) | IC50 (SMN2 mRNA) | IC50 (Target C) | AC50 (MYB mRNA; RT-qPCR) | AC50 (HTT mRNA; RT-qPCR) | Effect of Exemplary Compounds on Cell Viability, K562 (K562 cells)
Cn1cc2nc(-c3ccc4nc(C5CCNCC5)ccc4n3)c(F)cc2n1 [Compound 205] | 1 to 10 µM | 1 to 10 µM | 1 to 10 µM | 1 to 10 µM | 1 to 10 µM | 1 to 10 µM | 1 to 10 µM | 1 to 10 µM | 1 to 10 µM | 1 to 10 µM | C (C represents 1000-9999 nM)
Cc1cn2cc(-c3ccc4nc(N5CCC(NC(C)(C)C)C5)ccc4n3)nc(C)c2n1 (stereo not drawn) [Compound 206] | 1 to 10 µM | 1 to 10 µM | 1 to 10 µM | 1 to 10 µM | 1 to 10 µM | 1 to 10 µM | 1 to 10 µM | 1 to 10 µM | 1 to 10 µM | 1 to 10 µM | C (C represents 1000-9999 nM)
Cn1cc2nc(-c3ccc4nc(N5CCC(NC(C)(C)C)C5)ccc4n3)c(F)cc2n1 (stereo not drawn) [Compound 207] | 1 to 10 µM | 1 to 10 µM | 1 to 10 µM | 1 to 10 µM | 1 to 10 µM | 1 to 10 µM | 1 to 10 µM | 1 to 10 µM | 1 to 10 µM | 1 to 10 µM | C (C represents 1000-9999 nM)
Cc1nc(-c2ccc3nc(N4CCC(NC(C)(C)C)C4)ccc3n2)cc2cn(C)nc12 (stereo not drawn) [Compound 208] | > 10 µM | > 10 µM | > 10 µM | > 10 µM | > 10 µM | 1 to 10 µM | 1 to 10 µM | > 10 µM | 1 to 10 µM | > 10 µM | D (D represents greater than 10 μM in K562 cells)

Second part, led by results:

IC50 (MYB mRNA; [1]) | IC50 (MYB mRNA; [2]) | IC50 (HTT mRNA; [3]) | IC50 (HTT mRNA; [4]) | IC50 (MYB) | IC50 (HTT) | IC50 (SMN2 mRNA) | IC50 (Target C) | Compound | AC50 (MYB mRNA; RT-qPCR) | AC50 (HTT mRNA; RT-qPCR) | Effect of Exemplary Compounds on Cell Viability, K562 (K562 cells)
0.1 to 1 µM | 0.1 to 1 µM | 0.1 to 1 µM | 0.1 to 1 µM | 0.1 to 1 µM | < 0.1 µM | < 0.1 µM | 0.1 to 1 µM | Cc1cn2cc(-c3ccc4nc(N5CCC(NC(C)(C)C)C5)ccc4n3)cc(C)c2n1 (stereo not drawn) [Compound 201] | 0.1 to 1 µM | 0.1 to 1 µM | B (B represents 100-1000 nM)
< 0.1 µM | < 0.1 µM | < 0.1 µM | < 0.1 µM | < 0.1 µM | < 0.1 µM | < 0.1 µM | < 0.1 µM | Cn1cc2cc(-c3ccc4nc(N5CCC(NC(C)(C)C)C5)ccc4n3)c(O)c(F)c2n1 (stereo not drawn) [Compound 202] | < 0.1 µM | < 0.1 µM | A (A represents <100 nM)
0.1 to 1 µM | 0.1 to 1 µM | < 0.1 µM | < 0.1 µM | < 0.1 µM | < 0.1 µM | < 0.1 µM | < 0.1 µM | Cc1cn2nc(-c3ccc4nc(N5CCC(NC(C)(C)C)C5)ccc4n3)c(O)c2c(C)n1 (stereo not drawn) [Compound 203] | 0.1 to 1 µM | < 0.1 µM | B (B represents 100-1000 nM)
1 to 10 µM | 1 to 10 µM | 1 to 10 µM | 1 to 10 µM | 1 to 10 µM | 1 to 10 µM | 0.1 to 1 µM | 1 to 10 µM | Cn1cc2cc(-c3ccc4nc(C5CCNCC5)ccc4n3)c(C#N)cc2n1 [Compound 204] | 1 to 10 µM | 1 to 10 µM | D (D represents greater than 10 μM in K562 cells)
< 0.1 µM | < 0.1 µM | < 0.1 µM | < 0.1 µM | 1 to 10 µM | < 0.1 µM | < 0.1 µM | < 0.1 µM | Cc1nc2cc(O)c(-c3ccc4nc(N5CC[C@H](NC(C)(C)C)C5)ccc4n3)cc2o1 [Compound 209] | < 0.1 µM | < 0.1 µM | C (C represents 1000-9999 nM)
